# In US8771682B2, “Methods and compositions for reducing interleukin-4 or interleukin-13 signaling” (Technische Universtität Dresden, priority 2011, dated 2014):
# Entries after “also recorded” stand apart in the source; their conditions may differ.
# Tests used:
# Format in all cases: cell-based, human
# [1] = system: type II IL-4 signaling (IL-4/IL-13, Stat6 phosphorylation); assay: Stat6 phosphorylation by quantitative immunoblotting in Stat6-transfected HEK293T cells stimulated with IL-4 or IL-13 (type II signaling); settings: IL-4 3 ng/ml or IL-13 10 ng/ml, Dynasore 320 μmol/l, EHT-1864 50 μmol/l, IPA-3 10 μmol/l, FIG. 9
# Text: It was verified by RT-PCR that HEK293T (human epithelial cell line—ATCC number CRL-11268) cells expressed the endogenous type II IL-4 pathway components IL4-Ra, IL-13Ra1, Jak1, while Stat6 and the type I specific components IL-2Rg, and Jak3 were absent (FIG. 4 and FIG. 5). In HEK cells ectopically expressing human Stat6 under the cytomegalovirus promoter (pcDNA3.1-GS-Stat6, Gene Storm, Invitrogen) and stimulated with either IL-4 or IL-13, phosphorylated Stat6 became detectable by immunoblotting (FIG. 6). Co-transfected RNAi (Sigma Aldrich, #EHU-029151) mediated knockdown of the endogenous IL-13Ra1 subunit verified that this signaling activity was mediated by the type II receptor pathway (FIG. 7). Ectopically Stat6 is functional.
# To test whether IL-4 signaling depends on compounds inhibiting Rac/Pak dependent endocytosis, HEK293T cells were transfected with a plasmid encoding human Stat6. Following transfection, cells were grown overnight, treated with inhibitors and/or ligands, lysed, proteins separated electrophoretically under denaturing conditions, and phosphorylation of Stat6 detected by quantitative immunoblotting (Antibodies from Santa Cruz, anti-STAT6 (M-20) #sc-981 and anti-phospho-STAT6 (py641.18, #sc-136019; FIG. 9).
# If not indicated otherwise, human recombinant IL-4 (Invitrogen, #PHC0045) was used at 3 ng/ml, and human recombinant IL-13 (Cell Signaling, #8905) was used at 10 ng/ml.
# If not indicated otherwise, the dynamin inhibitor Dynasore (Sigma Aldrich, #D7693) was used at 320 μmol/l, the Rac1 inhibitor EHT-1864 (Sigma Aldrich, 41E-1657) at 50 μmol/l, and the PAK inhibitor IPA-3 (Sigma Aldrich, #I-2285) at 10 μmol/l.
# [2] = system: endogenous type I signaling (IL-4R, Stat6 phosphorylation) in Jurkat T lymphocytic leukemia cell line; assay: pStat6 levels, endogenous type I IL-4 signaling in Jurkat cells; settings: 10 min pre-incubation with inhibitor plus 30 min ligand and inhibitor, chlorpromazine 2.8 μmol/l
# Protocol: In a second series of experiments the inventors assayed the type I IL-4R. The pStat6 levels were determined under the following conditions: • without ligand stimulation • incubation with IL-4 ligand for 30 min • 10 min pre-incubation with inhibitor plus 30 min incubation with ligand and inhibitor • 40 min pre-incubation with inhibitor followed by removal of the inhibitor and 30 min incubation with ligand (washout).
# To assay endogenous type I signaling was analyzed in the Jurkat T lymphocytic leukemia cell line (ATCC TIB 152) showing a specific sensitivity to Rac/Pak dependent endocytosis.
# [3] = system: transferrin uptake in HEK cells expressing endogenous transferrin receptor; assay: Uptake of fluorescent transferrin (Alexa568-transferrin) by confocal fluorescence microscopy; settings: 25 μg/ml Alexa568-transferrin, compounds at working concentration (Dynasore 320 μmol/l), FIG. 14
# Protocol: The inventors verified that the used compounds at the working concentration indeed blocked endocytosis by monitoring the uptake of 25 μg/ml fluorescent transferrin (Alexa568-transferrin, Invitrogen) with confocal fluorescence microscopy (FIG. 14). The experiment was performed with (untransformed) HEK-cells expressing endogenous transferrin receptor. As expected, dynamin dependent endocytosis could be blocked with Dynasore. […] As expected, inhibiting Rac1 and Pak 1/2 dependent actin polymerization by EHT-1864 and IPA-3 had no effect on transferrin uptake (FIG. 14).
# [4] = system: loading of the signaling endosome with IL4-A647 in HEK293T transfected with IL-4Ra, IL-2Rg-eGFP and JAK3; assay: Translocation of labeled IL-4 (IL4-A647) into signaling endosomes, co-localization with IL-2Rg-eGFP
# Protocol: The inventors created a fluorescently labeled IL-4 ligand (Alexa647—succinimidylester, Invitrogen)—further referred to as IL4-A647.
# HEK293T were transfected with IL-4Ra, IL-2Rg-eGFP, and JAK3 as described above and cultured under standard culture conditions. The cells were incubated at 4° C. with the inhibitor (optional) and stained with 50 nmol/I IL4-A647 and washed with medium (DMEM without phenole red). The temperature release from 0° C. to 20° C. was defined as a reference point for the onset of endocytosis. Thenceforth, co-localization of eGFP with A647 was measured.
# Applying the fluorescent IL-4-A647 under conditions in which endocytosis is suppressed (4° C.) allows to observe the kinetics of the translocation into the signaling endosomes. The endocytosis starts with a temperature release. FIG. 15 illustrates that in an initial state (timepoint 0 min, IL4-A647 channel) the plasma membrane of the IL-4Ra chain expressing cells is homogeneously stained. However, after several minutes, the A647 fluorescence a punctuated pattern appears in the IL4-A647 channel showing a high degree of colocalization to the GFP channel (FIG. 16). Association of the stained endosomes with the actin cortex and the plasma membrane is apparent in central confocal cross-sections through a central part of the cell (FIG. 17). […] Such a readout could therefore be used to detect IL-4 translocation inhibitors.
Compound,Stat6 phosphorylation level [1],IL-4 signaling (pStat6 level) [2],transferrin uptake [3],"transport of the Alexa647-labeled ligand ([4]; 50 μmol/l EHT-1864, bottom membrane, 21 min after temperature release, FIG. 18)","uptake of the labeled ligand ([4]; 50 μmol/l EHT-1864, central cross-section, 22 min after temperature release, FIG. 19)","loading of the signaling endosome with IL4-A647 ([4]; pre-incubation with 50 μmol/l EHT-1864, for up to 20 minutes after temperature release, FIG. 18)",IL-4 signaling (pStat6 level) ([2]; listed as Chlorpromazine),transferrin uptake ([3]; listed as Chlorpromazine)
O=C(N/N=C/c1ccc(O)c(O)c1)c1cc2ccccc2cc1O [Dynasore],reduced the Stat6 phosphorylation level; also recorded: prevented Stat6 phosphorylation,significantly reduced,blocked transferrin endocytosis; also recorded: inhibit transferrin uptake,–,–,–,–,–
"O=c1cc(CN2CCOCC2)occ1OCCCCCSc1ccnc2cc(C(F)(F)F)ccc12 (racemic) [EHT-1864, 5-(5-(7-(Trifluoromethyl)quinolin-4-ylthio)pentyloxy)-2-(morpholinomethyl)-4H-pyran-4-one]",reduced the Stat6 phosphorylation level,significantly reduced,no effect,reduced,reduced uptake,reduced significantly,–,–
"Oc1ccc2ccccc2c1SSc1c(O)ccc2ccccc12 [IPA-3, 1,1′-Dithiodi-2-naphthtol]",reduced the Stat6 phosphorylation level,significantly reduced,no effect,–,–,–,–,–
CN(C)CCCN1c2ccccc2Sc2ccc(Cl)cc21 [chlorpromazine],–,no effect; also recorded: not IL-4 signaling,blocked transferrin uptake,–,–,–,no inhibitory effect,inhibit transferrin uptake
